# Reference: ChEMBL document CHEMBL2401729, “Histone deacetylase inhibitors equipped with estrogen receptor modulation activity” (J Med Chem, 2013)
# Activity calls are given as the source filed them. The calls are words filed in the database; no cut-off is given here.
# System: MDA-MB-231
# Experiment: Cytotoxicity against ERalpha and ERbeta-deficient human MDA-MB-231 cells assessed as growth inhibition after 72 hrs by MTT assay
# Assay type: functional, cell-based
# Details: MDA-MB-231, 72 h
row,SMILES,IC50
1,C[C@]12CC[C@@H]3c4ccc(O)cc4CC[C@H]3[C@@H]1CC[C@@]2(O)c1cn(CCCCCC(=O)NO)nn1,22.6 µM
2,CC/C(=C(\c1ccccc1)c1ccc(OCCN(C)Cc2ccc(-c3cn(CCCCCC(=O)NO)nn3)cc2)cc1)c1ccccc1,10 µM
3,CC/C(=C(\c1ccccc1)c1ccc(OCCN(C)Cc2ccc(NC(=O)CCCCCCC(=O)NO)cc2)cc1)c1ccccc1,8.1 µM
4,C[C@]12CC[C@@H]3c4ccc(O)cc4CC[C@H]3[C@@H]1CC[C@@]2(O)c1cn(CCCCCCC(=O)NO)nn1,14.1 µM
5,C[C@]12CC[C@@H]3c4ccc(O)cc4CC[C@H]3[C@@H]1CC[C@@]2(O)c1cn(CCCCCCCC(=O)NO)nn1,33.9 µM

# System: MCF7
# Experiment: Cytotoxicity against human MCF7 cells expressing ERalpha and ERbeta assessed as growth inhibition after 72 hrs by MTT assay
# Assay type: functional, cell-based
# Details: MCF7, 72 h
row,SMILES,IC50
1,CC/C(=C(\c1ccccc1)c1ccc(OCCN(C)Cc2ccc(-c3cn(CCCCCC(=O)NO)nn3)cc2)cc1)c1ccccc1,7.2 µM
2,CC/C(=C(\c1ccccc1)c1ccc(OCCN(C)Cc2ccc(NC(=O)CCCCCCC(=O)NO)cc2)cc1)c1ccccc1,3.8 µM
3,C[C@]12CC[C@@H]3c4ccc(O)cc4CC[C@H]3[C@@H]1CC[C@@]2(O)c1cn(CCCCCCC(=O)NO)nn1,37.3 µM

# Molecular target: Estrogen receptor beta (Homo sapiens) (UniProt Q92731)
# Experiment: Agonist activity at Gal4 DBD-fused human ERbeta LBD expressed in HEK293T cells at 10 uM after 40 hrs by luciferase reporter gene assay
# Assay type: cell-based
# Details: HEK-293T
# Sequence of Estrogen receptor beta (Homo sapiens) (Q92731 whole entry, the tested form may be a part): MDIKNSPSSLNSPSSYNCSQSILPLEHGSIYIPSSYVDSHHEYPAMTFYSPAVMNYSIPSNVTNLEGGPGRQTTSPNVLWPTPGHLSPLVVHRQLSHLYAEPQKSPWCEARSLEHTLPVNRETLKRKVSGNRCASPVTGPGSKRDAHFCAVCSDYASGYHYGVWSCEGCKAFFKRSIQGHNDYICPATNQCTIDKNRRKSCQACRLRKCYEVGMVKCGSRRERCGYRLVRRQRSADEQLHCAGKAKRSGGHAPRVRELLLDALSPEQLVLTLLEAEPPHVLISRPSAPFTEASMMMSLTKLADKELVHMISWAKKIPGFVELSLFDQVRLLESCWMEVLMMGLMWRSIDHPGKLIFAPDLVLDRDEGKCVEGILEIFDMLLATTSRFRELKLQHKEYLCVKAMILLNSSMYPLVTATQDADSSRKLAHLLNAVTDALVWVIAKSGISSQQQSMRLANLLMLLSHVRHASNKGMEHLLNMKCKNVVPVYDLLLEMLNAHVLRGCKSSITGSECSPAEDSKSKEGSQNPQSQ
row,Activity,SMILES
1,Active,C[C@]12CC[C@@H]3c4ccc(O)cc4CC[C@H]3[C@@H]1CC[C@@]2(O)c1cn(CCCCCC(=O)NO)nn1
2,Active,C[C@]12CC[C@@H]3c4ccc(O)cc4CC[C@H]3[C@@H]1CC[C@@]2(O)c1cn(CCCCCCCC(=O)NO)nn1

row,SMILES,Activity
1,C[C@]12CC[C@@H]3c4ccc(O)cc4CC[C@H]3[C@@H]1CC[C@@]2(O)c1cn(CCCCCCC(=O)NO)nn1,Active

# Molecular target: T1, Histone deacetylase 8 (Homo sapiens, UniProt Q9BY41)
# T1 sequence (Q9BY41 whole entry): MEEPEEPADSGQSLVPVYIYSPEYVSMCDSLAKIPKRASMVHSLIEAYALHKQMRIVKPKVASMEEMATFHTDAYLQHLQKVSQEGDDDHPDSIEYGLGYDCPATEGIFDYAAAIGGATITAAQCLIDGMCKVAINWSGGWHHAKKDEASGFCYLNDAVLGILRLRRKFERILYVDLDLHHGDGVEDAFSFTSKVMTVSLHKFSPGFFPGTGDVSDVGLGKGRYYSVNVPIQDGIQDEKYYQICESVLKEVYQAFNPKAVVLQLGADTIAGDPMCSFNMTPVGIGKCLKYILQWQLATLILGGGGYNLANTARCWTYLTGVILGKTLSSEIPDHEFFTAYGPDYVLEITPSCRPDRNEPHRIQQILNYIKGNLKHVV
# Experiment: Inhibition of human recombinant HDAC8 after 30 mins by fluorescence assay
# Details: not given
row,IC50,SMILES
1,4 µM,C[C@]12CC[C@@H]3c4ccc(O)cc4CC[C@H]3[C@@H]1CC[C@@]2(O)c1cn(CCCCCC(=O)NO)nn1
2,20 µM,C[C@]12CC[C@@H]3c4ccc(O)cc4CC[C@H]3[C@@H]1CC[C@@]2(O)c1cn(CCCCCCCC(=O)NO)nn1

row,SMILES,IC50
1,C[C@]12CC[C@@H]3c4ccc(O)cc4CC[C@H]3[C@@H]1CC[C@@]2(O)c1cn(CCCCCCC(=O)NO)nn1,0.45 µM

# Molecular target: T2, Protein deacetylase HDAC6 (Homo sapiens, UniProt Q9UBN7)
# T2 sequence (Q9UBN7 whole entry): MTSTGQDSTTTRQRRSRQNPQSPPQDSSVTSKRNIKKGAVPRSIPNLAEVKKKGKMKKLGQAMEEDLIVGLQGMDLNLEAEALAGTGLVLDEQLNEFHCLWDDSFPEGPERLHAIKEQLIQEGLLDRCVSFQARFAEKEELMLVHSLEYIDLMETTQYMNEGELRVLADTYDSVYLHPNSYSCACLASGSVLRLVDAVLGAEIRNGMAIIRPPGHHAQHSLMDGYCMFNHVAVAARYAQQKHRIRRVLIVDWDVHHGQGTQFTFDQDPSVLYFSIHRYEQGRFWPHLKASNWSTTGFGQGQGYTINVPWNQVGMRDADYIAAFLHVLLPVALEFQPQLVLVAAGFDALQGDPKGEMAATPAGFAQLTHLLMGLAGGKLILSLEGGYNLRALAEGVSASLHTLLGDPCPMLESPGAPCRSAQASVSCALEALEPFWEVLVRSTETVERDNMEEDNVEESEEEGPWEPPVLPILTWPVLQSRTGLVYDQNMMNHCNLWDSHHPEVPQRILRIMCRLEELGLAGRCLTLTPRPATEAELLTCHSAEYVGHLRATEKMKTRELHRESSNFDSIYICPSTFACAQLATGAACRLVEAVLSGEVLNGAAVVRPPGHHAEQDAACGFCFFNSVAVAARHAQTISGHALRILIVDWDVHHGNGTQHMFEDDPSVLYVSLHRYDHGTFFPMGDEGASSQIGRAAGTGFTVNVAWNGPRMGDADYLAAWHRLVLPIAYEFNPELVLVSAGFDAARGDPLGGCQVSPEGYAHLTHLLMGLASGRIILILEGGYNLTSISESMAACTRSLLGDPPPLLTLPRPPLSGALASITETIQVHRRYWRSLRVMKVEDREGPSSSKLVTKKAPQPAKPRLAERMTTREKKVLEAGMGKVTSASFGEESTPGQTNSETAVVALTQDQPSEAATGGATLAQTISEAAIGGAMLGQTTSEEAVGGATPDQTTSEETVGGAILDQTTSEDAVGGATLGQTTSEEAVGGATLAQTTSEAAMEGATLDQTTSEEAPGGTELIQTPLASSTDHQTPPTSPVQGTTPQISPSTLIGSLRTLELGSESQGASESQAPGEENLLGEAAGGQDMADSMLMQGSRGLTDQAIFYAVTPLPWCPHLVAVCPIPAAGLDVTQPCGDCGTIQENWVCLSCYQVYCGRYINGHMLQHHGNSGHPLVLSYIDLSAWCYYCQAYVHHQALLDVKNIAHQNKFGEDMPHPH
# Experiment: Inhibition of human recombinant HDAC6 after 30 mins by fluorescence assay
# Details: not given
row,IC50,SMILES
1,0.032 µM,C[C@]12CC[C@@H]3c4ccc(O)cc4CC[C@H]3[C@@H]1CC[C@@]2(O)c1cn(CCCCCC(=O)NO)nn1
2,0.567 µM,CC/C(=C(\c1ccccc1)c1ccc(OCCN(C)Cc2ccc(-c3cn(CCCCCC(=O)NO)nn3)cc2)cc1)c1ccccc1
3,1.3 µM,C[C@]12CC[C@@H]3c4ccc(O)cc4CC[C@H]3[C@@H]1CC[C@@]2(O)c1cn(CCCCCCCC(=O)NO)nn1

# The next lines start with the molecule.
row,SMILES,IC50
1,CC/C(=C(\c1ccccc1)c1ccc(OCCN(C)Cc2ccc(NC(=O)CCCCCCC(=O)NO)cc2)cc1)c1ccccc1,0.221 µM
2,C[C@]12CC[C@@H]3c4ccc(O)cc4CC[C@H]3[C@@H]1CC[C@@]2(O)c1cn(CCCCCCC(=O)NO)nn1,0.013 µM

# Molecular target: Histone deacetylase 1 (Homo sapiens, UniProt Q13547)
# Experiment: Inhibition of human recombinant HDAC1 after 30 mins by fluorescence assay
# Details: not given
# Sequence of Histone deacetylase 1 (Q13547 whole entry): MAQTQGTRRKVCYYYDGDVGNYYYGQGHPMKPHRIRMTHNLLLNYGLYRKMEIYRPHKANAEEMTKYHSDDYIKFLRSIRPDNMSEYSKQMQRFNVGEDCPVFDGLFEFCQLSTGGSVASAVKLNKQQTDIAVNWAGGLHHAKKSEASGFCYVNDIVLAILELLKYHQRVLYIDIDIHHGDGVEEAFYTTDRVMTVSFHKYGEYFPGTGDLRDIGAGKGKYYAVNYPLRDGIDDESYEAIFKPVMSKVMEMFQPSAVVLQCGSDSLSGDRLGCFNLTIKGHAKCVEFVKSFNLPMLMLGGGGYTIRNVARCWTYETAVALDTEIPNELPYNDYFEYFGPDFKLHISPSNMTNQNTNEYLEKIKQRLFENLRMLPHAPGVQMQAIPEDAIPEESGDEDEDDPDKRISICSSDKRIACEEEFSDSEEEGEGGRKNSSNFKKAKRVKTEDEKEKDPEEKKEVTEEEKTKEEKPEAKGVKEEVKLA
row,IC50,SMILES
1,0.075 µM,C[C@]12CC[C@@H]3c4ccc(O)cc4CC[C@H]3[C@@H]1CC[C@@]2(O)c1cn(CCCCCC(=O)NO)nn1
2,0.524 µM,CC/C(=C(\c1ccccc1)c1ccc(OCCN(C)Cc2ccc(-c3cn(CCCCCC(=O)NO)nn3)cc2)cc1)c1ccccc1
3,9 µM,C[C@]12CC[C@@H]3c4ccc(O)cc4CC[C@H]3[C@@H]1CC[C@@]2(O)c1cn(CCCCCCCC(=O)NO)nn1

# The remaining lines, values behind:
row,SMILES,IC50
1,CC/C(=C(\c1ccccc1)c1ccc(OCCN(C)Cc2ccc(NC(=O)CCCCCCC(=O)NO)cc2)cc1)c1ccccc1,2.7 µM
2,C[C@]12CC[C@@H]3c4ccc(O)cc4CC[C@H]3[C@@H]1CC[C@@]2(O)c1cn(CCCCCCC(=O)NO)nn1,0.028 µM

# Molecular target: T3, Estrogen receptor (Homo sapiens, UniProt P03372)
# T3 sequence (P03372 whole entry): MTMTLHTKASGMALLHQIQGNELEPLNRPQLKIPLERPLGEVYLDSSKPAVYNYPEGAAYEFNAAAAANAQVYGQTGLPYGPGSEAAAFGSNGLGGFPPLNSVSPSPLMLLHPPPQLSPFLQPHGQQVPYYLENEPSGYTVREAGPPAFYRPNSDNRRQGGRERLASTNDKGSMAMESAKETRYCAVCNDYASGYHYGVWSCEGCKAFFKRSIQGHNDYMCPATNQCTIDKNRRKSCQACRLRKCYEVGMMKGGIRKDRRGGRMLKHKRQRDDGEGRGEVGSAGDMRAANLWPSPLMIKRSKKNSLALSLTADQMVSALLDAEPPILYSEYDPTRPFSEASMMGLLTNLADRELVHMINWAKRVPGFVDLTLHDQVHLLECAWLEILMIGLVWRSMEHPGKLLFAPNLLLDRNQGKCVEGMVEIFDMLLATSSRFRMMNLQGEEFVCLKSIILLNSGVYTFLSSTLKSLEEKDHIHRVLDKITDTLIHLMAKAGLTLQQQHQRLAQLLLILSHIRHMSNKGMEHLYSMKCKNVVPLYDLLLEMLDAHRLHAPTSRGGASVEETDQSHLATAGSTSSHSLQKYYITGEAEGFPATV
# Experiment: Antagonist activity at Gal4 DBD-fused human ERalpha LBD expressed in HEK293T cells assessed as inhibition of estradiol-induced transcriptional activation after 20 hrs by luciferase reporter gene assay
# Assay type: cell-based, HEK-293T
# Details: not given
row,IC50,SMILES
1,0.248 µM,CC/C(=C(\c1ccccc1)c1ccc(OCCN(C)Cc2ccc(-c3cn(CCCCCC(=O)NO)nn3)cc2)cc1)c1ccccc1
2,0.127 µM,CC/C(=C(\c1ccccc1)c1ccc(OCCN(C)Cc2ccc(NC(=O)CCCCCCC(=O)NO)cc2)cc1)c1ccccc1

# System: not listed separately
# Experiment: Therapeutic index, ratio of IC50 for african green monkey Vero cells to IC50 for human MCF7 cells expressing ERalpha and ERbeta
# Details: Vero cells versus MCF7 cells expressing ERalpha and ERbeta
row,SMILES,selectivity ratio
1,CC/C(=C(\c1ccccc1)c1ccc(OCCN(C)Cc2ccc(-c3cn(CCCCCC(=O)NO)nn3)cc2)cc1)c1ccccc1,1.26
2,CC/C(=C(\c1ccccc1)c1ccc(OCCN(C)Cc2ccc(NC(=O)CCCCCCC(=O)NO)cc2)cc1)c1ccccc1,0.95

# System: Vero
# Experiment: Cytotoxicity against african green monkey Vero cells assessed as growth inhibition after 72 hrs by MTT assay
# Assay type: ADME, cell-based
# Details: Chlorocebus sabaeus
row,SMILES,IC50
1,CC/C(=C(\c1ccccc1)c1ccc(OCCN(C)Cc2ccc(-c3cn(CCCCCC(=O)NO)nn3)cc2)cc1)c1ccccc1,9.1 µM
2,CC/C(=C(\c1ccccc1)c1ccc(OCCN(C)Cc2ccc(NC(=O)CCCCCCC(=O)NO)cc2)cc1)c1ccccc1,3.6 µM

# System: MCF7
# Experiment: Ratio of tamoxifen IC50 to compound IC50 for human MCF7 cells expressing ERalpha and ERbeta
# Assay type: functional
# Details: not given
row,SMILES,Ratio IC50
1,CC/C(=C(\c1ccccc1)c1ccc(OCCN(C)Cc2ccc(-c3cn(CCCCCC(=O)NO)nn3)cc2)cc1)c1ccccc1,2
2,CC/C(=C(\c1ccccc1)c1ccc(OCCN(C)Cc2ccc(NC(=O)CCCCCCC(=O)NO)cc2)cc1)c1ccccc1,4

# System: DU-145
# Experiment: Cytotoxicity against ERalpha-deficient human DU145 cells expressing ERbeta assessed as growth inhibition after 72 hrs by MTT assay
# Assay type: functional, cell-based
# Details: DU-145, 72 h
row,SMILES,IC50
1,C[C@]12CC[C@@H]3c4ccc(O)cc4CC[C@H]3[C@@H]1CC[C@@]2(O)c1cn(CCCCCC(=O)NO)nn1,26.9 µM
2,CC/C(=C(\c1ccccc1)c1ccc(OCCN(C)Cc2ccc(-c3cn(CCCCCC(=O)NO)nn3)cc2)cc1)c1ccccc1,20.6 µM
3,CC/C(=C(\c1ccccc1)c1ccc(OCCN(C)Cc2ccc(NC(=O)CCCCCCC(=O)NO)cc2)cc1)c1ccccc1,14.1 µM
4,C[C@]12CC[C@@H]3c4ccc(O)cc4CC[C@H]3[C@@H]1CC[C@@]2(O)c1cn(CCCCCCC(=O)NO)nn1,27 µM
